# USRE32268E, “Therapeutic composition and method of therapeutically treating warm blooded animals therewith” (Strategic Medical Research Corp., priority 1983, dated 1986)
# Where two headings read alike, the source gives them in different places.
# Tests used:
# herpes simplex virus = experiment: organism not typed; format: cell-based
# [1] = test system: influenza A2 virus, Hong Kong strain; experiment: antiviral potency against influenza A2 virus, Hong Kong strain, in tissue culture (baby hamster kidney cell line); format: cell-based; settings: for log reduction at 3 µg/mL / log reduction at 10 µg/mL: read-out: Log Decrease in Infectivity of Virus Inoculum
# Experimental: Well established methodology of the prior art was employed to determine the antiviral potency of compounds against influenza A2 virus, Hong Kong strain, in tissue cultures, employing the baby hamster kidney cell line (see R. L. Muldoon, L. Mezny and G. G. Jackson in Antimicrobial Agents and Chemotherapy 2:224-228, 1972). Virus infectivity was evaluated by both hemagglutination techniques and cytopathogenic effects, with identical results for each method. In Table 1 below, the virus-inhibiting effects of two low drug concentrations, 3 and 10 μg/ml, are depicted. Results are given as the log decrease in infectivity of the virus inoculum. A log decrease of 4.0 is the maximum obtainable, representing complete suppression of virus growth in the system. The virus inoculum of day 0 was always 100 times that amount required to kill 50% of the tissue culture cells (100 TCD50).
# influenza A/PR/8 = experiment: prevention of death in mice ill with a lethal influenza A/PR/8 infection; format: in vivo; settings: once 90 minutes before infection; for % of Population Protected / % Mortality: 8 days; for % Mortality: control 95; for Mortality Frequency at 8 Days: control 42/44
# Experimental: The above medication was also examined for its capacity to prevent death in mice ill with a lethal influenza A/PR/8 infection. The drug was given subcutaneously at 3 dose levels, once 90 minutes before infection.
# [2] = test system: influenza A2/Hong Kong disease; experiment: suppression of influenza A2/Hong Kong disease in mice; format: in vivo; settings: infected treated, 40 mg/Kg orally, at 8 days
# [3] = herpes simplex virus, tissue culture
# [4] = 3 μg/ml, inoculum 100 TCD50, 4.0 is the maximum obtainable
# [5] = 10 μg/ml, inoculum 100 TCD50, 4.0 is the maximum obtainable
molecule,measurement,setting,value
"CCN(CC)CCOC1C(C2COC(C)(C)O2)OC2OC(C)(C)OC21 [1,2:5,6-di-O-isopropylidene-3-O-2'-(N',N'-diethylaminoethyl)-D-glucofuranose]",Concentration required to exert 50% inhibition of herpes-induced plaque formation,herpes simplex virus; [3],6 µg/mL
same,Concentration required to exert 100% inhibition of herpes-induced plaque formation,herpes simplex virus; [3],30 µg/mL
"CN1CCC(O[C@H]2[C@H](O)[C@@H](CO)OC(O)[C@@H]2O)CC1 (stereo partly drawn) [3-O--4'-(N--methylpiperidyl)-D-glucose, 3-O-4'-(N-methylpiperidyl)-D-glucopyranose]",log reduction at 3 µg/mL,[1],2.5
same,log reduction at 10 µg/mL,[1],3.5
"CC(CO[C@H]1[C@H](O)[C@@H](CO)OC(O)[C@@H]1O)CN(C)C (stereo partly drawn) [3-O-3'-(2',N',N'-trimethylamino-n-propyl)-D-glucopyranose]",log reduction at 3 µg/mL,[1]; [4],2.4
same,log reduction at 10 µg/mL,[1]; [5],3
"CN1CCC(O[C@@H]2[C@H]3OC(C)(C)O[C@H]3O[C@@H]2[C@H]2COC(C)(C)O2)CC1 [1,2,5,6-di-O--isopropylidene-3-O--4'-(N--methyl-piperidyl)-D-glucofuranose]",IC50,"herpes simplex virus; read-out: Concentration required to exert 50% inhibition of herpes-induced plaque formation, herpes simplex virus, tissue culture",< 3 µg/mL
"CN(C)CCO[C@H]1[C@H](O)[C@@H](CO)OC(O)[C@@H]1O (stereo partly drawn) [3-O-2'-(N',N'-dimethylaminoethyl)-D-glucopyranose]",log reduction at 3 µg/mL,[1]; [4],2.5
same,log reduction at 10 µg/mL,[1]; [5],3.5
"CCN(CC)CCO[C@H]1[C@H](O)[C@@H](CO)OC(O)[C@@H]1O (stereo partly drawn) [3-O-2'-(N',N'-diethylaminoethyl)-D-glucose]",log reduction at 3 µg/mL,[1]; [4],0.5
same,log reduction at 10 µg/mL,[1]; [5],1
"NCCCO[C@H]1[C@H](O)[C@@H](CO)OC(O)[C@@H]1O (stereo partly drawn) [3-O--3'-n-propylamino-D-glucose, 3-O-3'-(n-propylamino)-D-glucopyranose]",IC100,"herpes simplex virus; read-out: Concentration required to exert 100% inhibition of herpes-induced plaque formation, herpes simplex virus, tissue culture",20 µg/mL
"CC(CN(C)C)O[C@H]1O[C@H](CO)[C@@H](O)[C@H](O)[C@H]1O (stereo partly drawn) [α-N,N--dimethylaminoisopropylglucoside, α-N,N-dimethylaminoisopropyl-D-glucoside]",Log Decrease in Infectivity of Virus Inoculum,[1]; [4],1.5 log
same,Log Decrease in Infectivity of Virus Inoculum,[1]; [5],2.5 log
same,Concentration required to exert 50% inhibition of herpes-induced plaque formation,herpes simplex virus; [3],10 µg/mL
same,Concentration required to exert 100% inhibition of herpes-induced plaque formation,herpes simplex virus; [3],> 50 µg/mL
"CN(C)CCCO[C@H]1[C@H](O)[C@@H](CO)OC(O)[C@@H]1O (stereo partly drawn) [3-O-3'-(N',N'-dimethylamino-n-propyl)-D-glucopyranose]",% of Population Protected,influenza A/PR/8; 10 mg/Kg subcutaneously,14%
same,% Mortality,influenza A/PR/8; 10 mg/Kg subcutaneously,81%
same,Mortality Frequency at 8 Days,influenza A/PR/8; 10 mg/Kg subcutaneously,18/22
same,% of Population Protected,influenza A/PR/8; 40 mg/Kg subcutaneously,23%
same,% Mortality,influenza A/PR/8; 40 mg/Kg subcutaneously,72%
same,Mortality Frequency at 8 Days,influenza A/PR/8; 40 mg/Kg subcutaneously,16/22
same,% of Population Protected,influenza A/PR/8; 160 mg/Kg subcutaneously,50%
same,% Mortality,influenza A/PR/8; 160 mg/Kg subcutaneously,45%
same,Mortality Frequency at 8 Days,influenza A/PR/8; 160 mg/Kg subcutaneously,10/22
same,Frequency of Normal Lungs (<170 mg),"[2]; normal 12/21, infected control 1/21",13/21
same,Average Lung Weight,"[2]; beginning 24 hours post-infection, 50% of drug 1,2-acetone-blocked, normal 160, infected control 258",177 mg
same,% Disease Suppression,"[2]; beginning 24 hours post-infection, lung weight",82%
same,relative antiviral potency,"[1]; influenza A2, among tested derivatives",the most potent effect
same,log reduction at 3 µg/mL,[1],3.2
same,log reduction at 10 µg/mL,[1],4
same,relative antiviral potency,herpes simplex virus,the most potent derivative
"3-O-2'-(N',N'-dimethylaminopropyl)-D-glucopyranose",Log Decrease in Infectivity of Virus Inoculum,[1]; [4],1.0 log
same,Log Decrease in Infectivity of Virus Inoculum,[1]; [5],2.0 log
same,Concentration required to exert 50% inhibition of herpes-induced plaque formation,herpes simplex virus,3 µg/mL
same,Concentration required to exert 100% inhibition of herpes-induced plaque formation,herpes simplex virus,> 20 µg/mL
"CC(CN(C)C)OC[C@H]1OC(O)[C@H](O)[C@@H](O)[C@H]1O (stereo partly drawn) [6-O-2'-(N',N'-dimethylaminopropyl)-D-galactose]",Log Decrease in Infectivity of Virus Inoculum,[1]; [4],0.1 log
same,Log Decrease in Infectivity of Virus Inoculum,[1]; [5],0.5 log
"CN(C)CCCOC[C@H]1OC(O)[C@H](O)[C@@H](O)[C@H]1O (stereo partly drawn) [6-O-3'-(N',N'-dimethylamino-n-propyl)-D-galactopyranose]",log reduction at 3 µg/mL,[1]; [4],1
same,log reduction at 10 µg/mL,[1]; [5],2
